Data reported in patent publication US9193744B2, “Heterocyclic nuclear hormone receptor modulators” (AbbVie Inc., priority 2012, dated 2015).
Read-outs that look alike come from different tables or passages of the source.

Tests used:
[1] = test system: IL-6; experiment: A549 Cell Assay to Measure Inflammation Markers (inhibition of IL-1β-induced IL-6); format: cell-based; conditions: A549 cells, read-out: A549 cell assay
Summary of the method: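 A549 cells pre-incubated 1 h with compound (10-point dilution, 0.1% DMSO final) in charcoal-stripped serum medium, then stimulated 4 h with 1 ng/mL IL-1β at 37° C. Supernatant IL-6 measured by MSD immunoassay; IC50 and Emax relative to 1 μM prednisolone as 100% inhibition; viability checked by CellTiter-Glo.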

[2] = test system: OCN; experiment: MG-63 Cell Assay to Measure Bone Markers (inhibition of Vitamin K/Vitamin D-induced OCN); format: cell-based; conditions: Homo sapiens, MG63 cells
Protocol: MG-63 Cell Assay to Measure Bone Markers
MG-63 cells were cultured in culture media containing ascorbic acid (DMEM/F12 supplemented with 10% FBS, 1% HEPES, 100 U/mL-100 μg/mL Pen-Strep, and 100 μg/mL of ascorbic acid) for, minimally, 1 week before study. MG-63 cells were seeded (4E4 cells/well) in 96-well assay plates in culture medium (200 μL/well.) After overnight culture in an incubator set to 37° C., 4.9% CO2, and 90% humidity, media was removed from adherent cells by aspiration and replaced with 100 μL/well assay medium, DMEM/F12 supplemented with 5% Charcoal Stripped Serum, 1% HEPES, 100 U/mL-100 μg/mL Pen-Strep, and 100 μg/mL of ascorbic acid. Compounds were prepared with DMSO and serial diluted (1:3, 1:4, or 1:5) with DMSO in dilution plate(s) to give 10 dilution points for each compound tested. Further dilution (1:250) of compound was made into assay medium and 50 μL/well diluted drug or DMSO/media control was applied to cells. After a 1 h pre-incubation in a temperature, CO2, and humidity controlled incubator, set to 37° C., 50 μL/well of 40 nM Vitamin K and 400 nM Vitamin D that were diluted in assay media were applied to plates. Assay plates, with a final volume of 200 μL/well and final concentrations of 0.1% DMSO, 10 nM Vitamin K, and 100 nM Vitamin D, were returned to incubator for overnight culture. Next, plates were spun at 183 g (1000 rpm in Beckman/Coulter Allegra 6KR centrifuge) for 10 min. Cell-free supenatant (150 μL/well) was collected and OCN was measured by MSD kit, following protocol of manufacturer, and using MSD SECTOR Imager 6000 instrument. Potency of drug to inhibit OCN was determined using the percent reduction of measured OCN in wells with drug compared to control wells without drug, and relative to (100% inhibition) positive control sample of 10 μM prednisolone. Results were represented as IC50 and Emax values. To verify that viable cell numbers were similar across plate(s), and not confounding compound IC50 data interpretation, the remaining 50 μL/well of cells and media (after removal of supernatant) were used to run Cell Titer-Glo Assay per directions of manufacturer.

[3] = target: T1, Glucocorticoid Receptor (GR) (Homo sapiens, UniProt P04150); experiment: GR Fluorescence Polarization Assay (PolarScreen Glucocorticoid Receptor Competitor Assay, Red); conditions: fluorescence polarization binding ranges
T1 construct: purchased Invitrogen P2893
T1 sequence (P04150 1-777): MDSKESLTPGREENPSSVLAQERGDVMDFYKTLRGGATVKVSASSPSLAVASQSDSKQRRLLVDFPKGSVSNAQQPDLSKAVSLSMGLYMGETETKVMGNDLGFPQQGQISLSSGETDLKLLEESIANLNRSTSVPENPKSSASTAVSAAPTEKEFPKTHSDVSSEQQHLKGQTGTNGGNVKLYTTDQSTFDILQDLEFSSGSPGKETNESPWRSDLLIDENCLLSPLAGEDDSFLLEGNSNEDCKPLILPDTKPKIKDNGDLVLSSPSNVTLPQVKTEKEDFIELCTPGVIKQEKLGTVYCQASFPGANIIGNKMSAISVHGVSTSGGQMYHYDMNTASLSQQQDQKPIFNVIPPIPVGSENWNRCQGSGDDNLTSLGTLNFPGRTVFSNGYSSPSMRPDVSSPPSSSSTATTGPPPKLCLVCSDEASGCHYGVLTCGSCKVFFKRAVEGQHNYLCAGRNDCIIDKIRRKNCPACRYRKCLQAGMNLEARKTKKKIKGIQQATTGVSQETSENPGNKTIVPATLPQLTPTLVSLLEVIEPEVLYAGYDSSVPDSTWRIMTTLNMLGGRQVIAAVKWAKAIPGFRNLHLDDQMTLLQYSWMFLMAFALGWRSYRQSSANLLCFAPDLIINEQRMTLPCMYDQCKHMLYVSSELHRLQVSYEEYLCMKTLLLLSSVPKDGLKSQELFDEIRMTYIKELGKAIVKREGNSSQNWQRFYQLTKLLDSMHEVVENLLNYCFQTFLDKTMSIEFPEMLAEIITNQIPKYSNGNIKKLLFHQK
Summary of the method: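 Competitive fluorescence polarization using a red fluorescent glucocorticoid tracer and GR in kit buffer. Compounds in 1:4 DMSO serial dilution, incubated with tracer and receptor overnight at 4° C before polarization read-out.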

In the case of CC[C@@]12CC[C@@](O)(C(F)(F)F)C[C@@H]1CCCc1cc3c(cnn3-c3ccc(F)cc3)cc12 (racemic) [Example 1, (3S,4aS,12bR)-12b-Ethyl-9-(4-fluoro-phenyl)-3-trifluoromethyl-1,2,3,4,4a, 5,6,7,9,12b-decahydro-9,10-diaza-benzo[3,4]cyclohepta[1,2-f]inden-3-ol; compound with (3R,4aR,12bS)-12b-ethyl-9-(4-fluoro-phenyl)-3-trifluoromethyl-1,2,3,4,4a,5,6,7,9,12b-decahydro-9,10-diaza-benzo[3,4]cyclohepta[1,2-f]inden-3-ol], the IC50 ([1]; Homo sapiens) is reported as < 100 nM, the IC50 [2] is reported as < 100 nM and the IC50 [3] is reported as < 100 nM.
CCOC[C@]1(O)CC[C@@]2(CC)c3cc4cnn(-c5ccc(F)cc5)c4cc3CCC[C@@H]2C1 (single isomer, unassigned) [Example 9] was tested, and the IC50 ([1]; Homo sapiens) was 100 to 1000 nM, the IC50 [2] was > 10000 nM and the IC50 [3] was < 100 nM.
In the case of COC[C@@]1(O)CC[C@@]2(Cc3ccccn3)c3cc4cnn(-c5ccc(F)cc5)c4cc3CCC[C@H]2C1 (single isomer, unassigned) [Example 12], the IC50 ([1]; Homo sapiens) is reported as < 100 nM, the IC50 [2] is reported as < 100 nM and the IC50 [3] is reported as < 100 nM.
For CCC[C@]1(O)CC[C@@]2(CC)c3cc4cnn(-c5ccc(F)cc5)c4cc3CCC[C@@H]2C1 (single isomer, unassigned) [Example 5], the IC50 ([1]; Homo sapiens) was 100 to 1000 nM, the IC50 [2] was > 10000 nM and the IC50 [3] was < 100 nM.
For CC[C@@]12CC[C@@](O)(COC)C[C@H]1CCCc1cc3c(cnn3-c3ccc(F)cc3)cc12 (single isomer, unassigned) [Example 7], the IC50 ([1]; Homo sapiens) was < 100 nM, the IC50 [2] was > 10000 nM and the IC50 [3] was < 100 nM.
For COC[C@]1(O)CC[C@]2(Cc3ccccn3)c3cc4cnn(-c5ccc(F)cc5)c4cc3CCC[C@@H]2C1 (single isomer, unassigned) [Example 13], the IC50 ([1]; Homo sapiens) was < 100 nM, the IC50 [2] was < 100 nM and the IC50 [3] was < 100 nM.
For CCC[C@]1(O)CC[C@@]2(CC)c3cc4cnn(-c5ccc(F)cc5)c4cc3CCC[C@@H]2C1 (racemic) [Example 4, (3S,4aR,12bR)-12b-Ethyl-9-(4-fluoro-phenyl)-3-propyl-1,2,3,4,4a,5,6,7,9,12b-decahydro-9,10-diaza-benzo[3,4]cyclohepta[1,2-f]inden-3-ol; compound with (3R,4aS,12bS)-12b-ethyl-9-(4-fluoro-phenyl)-3-propyl-1,2,3,4,4a,5,6,7,9,12b-decahydro-9,10-diaza-benzo[3,4]cyclohepta[1,2-f]inden-3-ol], the IC50 ([1]; Homo sapiens) was 100 to 1000 nM, the IC50 [2] was < 100 nM and the IC50 [3] was < 100 nM.
CC[C@@]12CC[C@@](O)(C(F)(F)F)C[C@@H]1CCCc1cc3c(cnn3-c3ccc(F)cc3)cc12 (single isomer, unassigned) [Example 3] was tested, and the IC50 ([1]; Homo sapiens) was < 100 nM, the IC50 [2] was 100 to 1000 nM and the IC50 [3] was < 100 nM.
With CC[C@@]12CC[C@](O)(COC)C[C@@H]1CCCc1cc3[nH]ncc3cc12 (racemic) [Example 14, (3R,4aS,12bR)-12b-Ethyl-3-methoxymethyl-1,2,3,4,4a,5,6,7,9,12b-decahydro-9,10-diaza-benzo[3,4]cyclohepta[1,2-f]inden-3-ol; compound with (3S,4aR,12bS)-12b-ethyl-3-methoxymethyl-1,2,3,4,4a,5,6,7,9,12b-decahydro-9,10-diaza-benzo[3,4]cyclohepta[1,2-f]inden-3-ol] the IC50 ([1]; Homo sapiens) was > 10000 nM, the IC50 [2] was > 10000 nM and the IC50 [3] was < 100 nM.
COC[C@@]1(O)CC[C@@]2(Cc3ccccn3)c3cc4cnn(-c5ccc(F)cc5)c4cc3CCC[C@H]2C1 (racemic) [Example 11] was tested, and the IC50 ([1]; Homo sapiens) was < 100 nM, the IC50 [2] was < 100 nM and the IC50 [3] was < 100 nM.
With CC[C@]12CC[C@@](O)(CC#N)C[C@H]1CCCc1cc3c(cnn3-c3ccc(F)cc3)cc12 [Example 64] the IC50 [1] was < 100 nM and the IC50 [3] was < 100 nM.
